Laboratory results reported in ChEMBL document CHEMBL3046559, “Sterile oat (Avena sterilis L.) cross-resistance profile to ACCase-inhibiting herbicides in Greece” (2012).

Columns and labels:
Format in all cases: functional
[1] = tested on: Avena sterilis; experiment: Resistance index, ratio of GR50 for Avena sterilis accession P08 to GR50 for Avena sterilis accession P10S
[2] = tested on: Avena sterilis; experiment: Resistance index, ratio of GR50 for Avena sterilis accession P21S to GR50 for Avena sterilis accession P10S
[3] = tested on: Avena sterilis; experiment: Resistance index, ratio of GR50 for Avena sterilis accession P11 to GR50 for Avena sterilis accession P10S
[4] = tested on: Avena sterilis; experiment: Resistance index, ratio of GR50 for Avena sterilis accession P04 to GR50 for Avena sterilis accession P10S
[5] = tested on: Avena sterilis; experiment: Resistance index, ratio of GR50 for Avena sterilis accession P03 to GR50 for Avena sterilis accession P10S
[6] = tested on: Avena sterilis; experiment: Resistance index, ratio of GR50 for Avena sterilis accession P12 to GR50 for Avena sterilis accession P10S
[7] = tested on: Avena sterilis; experiment: Resistance index, ratio of GR50 for Avena sterilis accession P20 to GR50 for Avena sterilis accession P10S
[8] = tested on: Avena sterilis; experiment: Herbicidal activity against Avena sterilis accession P02 assessed as weed survival at 1 times field recommended herbicide dose
[9] = tested on: Avena sterilis; experiment: Resistance index, ratio of GR50 for Avena sterilis accession P09 to GR50 for Avena sterilis accession P10S
[10] = tested on: Avena sterilis; experiment: Resistance index, ratio of GR50 for Avena sterilis accession P22 to GR50 for Avena sterilis accession P10S
[11] = tested on: Avena sterilis; experiment: Resistance index, ratio of GR50 for Avena sterilis accession P14 to GR50 for Avena sterilis accession P10S
[12] = tested on: Avena sterilis; experiment: Resistance index, ratio of GR50 for Avena sterilis accession P18 to GR50 for Avena sterilis accession P10S
[13] = tested on: Avena sterilis; experiment: Resistance index, ratio of GR50 for Avena sterilis accession P16 to GR50 for Avena sterilis accession P10S
[14] = tested on: Avena sterilis; experiment: Herbicidal activity against Avena sterilis accession P09 assessed as weed survival at 8 times field recommended herbicide dose
[15] = tested on: Avena sterilis; experiment: Resistance index, ratio of GR50 for Avena sterilis accession P06S to GR50 for Avena sterilis accession P10S
[16] = tested on: Avena sterilis; experiment: Herbicidal activity against Avena sterilis accession P05 assessed as weed survival at 16 times field recommended herbicide dose
[17] = tested on: Avena sterilis; experiment: Resistance index, ratio of GR50 for Avena sterilis accession P19S to GR50 for Avena sterilis accession P10S
[18] = tested on: Avena sterilis; experiment: Resistance index, ratio of GR50 for Avena sterilis accession P13S to GR50 for Avena sterilis accession P10S
[19] = tested on: Avena sterilis; experiment: Resistance index, ratio of GR50 for Avena sterilis accession P01 to GR50 for Avena sterilis accession P10S
[20] = tested on: Avena sterilis; experiment: Resistance index, ratio of GR50 for Avena sterilis accession P05 to GR50 for Avena sterilis accession P10S
[21] = tested on: Avena sterilis; experiment: Herbicidal activity against Avena sterilis accession P18 assessed as weed survival at 8 times field recommended herbicide dose
[22] = tested on: Avena sterilis; experiment: Herbicidal activity against Avena sterilis accession P06S assessed as weed survival at 1/16 times field recommended herbicide dose
[23] = tested on: Avena sterilis; experiment: Resistance index, ratio of GR50 for Avena sterilis accession P15 to GR50 for Avena sterilis accession P10S
[24] = tested on: Avena sterilis; experiment: Herbicidal activity against Avena sterilis accession P14 assessed as weed survival at 32 times field recommended herbicide dose
[25] = tested on: Avena sterilis; experiment: Resistance index, ratio of GR50 for Avena sterilis accession P17 to GR50 for Avena sterilis accession P10S
[26] = tested on: Avena sterilis; experiment: Resistance index, ratio of GR50 for Avena sterilis accession P02 to GR50 for Avena sterilis accession P10S
[27] = tested on: Avena sterilis; experiment: Resistance index, ratio of GR50 for Avena sterilis accession P07 to GR50 for Avena sterilis accession P10S

SMILES | Ratio [1] | Ratio [2] | Ratio [4] | Ratio [5] | Ratio [7] | Survival [8] [%] | Ratio [9] | Ratio [10] | Ratio [13] | Survival [14] [%] | Ratio [15] | Survival [16] [%] | Ratio [17] | Ratio [18] | Ratio [19] | Survival [21] [%] | Survival [22] [%] | Ratio [23] | Survival [24] [%] | Ratio [25] | further results
C#CCOC(=O)[C@@H](C)Oc1ccc(Oc2ncc(Cl)cc2F)cc1 [CLODINAFOP PROPARGYL] | >164 | 1.4 | >164 | >164 | 63 | 97 | 6 | 15 | 21 | 0 | 1.1 | 13 | 3.6 | 0.6 | 130 | 73 | 97 | >164 | 43 | 35 | Ratio [3]: >164; Ratio [6]: >164; Ratio [11]: 150; Ratio [12]: 64; Ratio [20]: 22; Ratio [26]: >164
COC(=O)C(C)Oc1ccc(Oc2ccc(Cl)cc2Cl)cc1 (centres undefined) [DICLOFOP-METHYL] | 22 | 0.8 | 28 | 26 | >50 | 100 | 28 | 8 | 11 | 73 | 1.1 | 20 | 0.9 | 1 | 43 | 60 | 100 | >50 | 37 | 17 | Ratio [3]: >50; Ratio [6]: >50; Ratio [11]: 22; Ratio [12]: 20; Ratio [27]: 7; Ratio [20]: 10; Ratio [26]: >50
CCOC(=O)[C@@H](C)Oc1ccc(Oc2nc3ccc(Cl)cc3o2)cc1 [FENOXAPROP-P-ETHYL] | 55 | 1.2 | 59 | 55 | >165 | 100 | 136 | 16 | 32 | 80 | 1.1 | 20 | 1.9 | 1.1 | 38 | 90 | 90 | 92 | 0 | 19 | Ratio [3]: 145; Ratio [6]: 83; Ratio [11]: 10; Ratio [12]: >165; Ratio [27]: >165; Ratio [20]: 12; Ratio [26]: 133
COCc1cnc(C2=NC(C)(C(C)C)C(=O)N2)c(C(=O)O)c1 (centres undefined) [IMAZAMOX] | – | – | – | – | – | 3 | – | – | – | 0 | – | 0 | – | – | – | 0 | 93 | – | 0 | – | –
CCc1cc(C)cc(CC)c1-c1c(OC(=O)C(C)(C)C)n2n(c1=O)CCOCC2 [PINOXADEN] | – | 1.4 | 18 | – | 10 | 20 | – | – | – | 0 | 0.9 | 0 | 1.6 | 1 | – | 0 | 80 | – | 0 | – | –
CCO/N=C(\CC)C1=C(O)CC(c2c(C)cc(C)cc2C)CC1=O (centres undefined) [TRALKOXYDIM] | 27 | 3 | 266 | 55 | 102 | 77 | 19 | 15 | 32 | 0 | 1 | 0 | 0.4 | 1 | 27 | 0 | 60 | 26 | 0 | 14 | Ratio [26]: 38
